Assay [1] deals with NMBR. Briefly: [3H]IP production, NMBR agonist/antagonist. The class given is cell-based, human.
In the next assay the test system is GRPR. The class given is cell-based, human.
Assay [2] addresses T1, human BRS-3-receptor (Homo sapiens, UniProt P32247).
T1 sequence (P32247 1-399): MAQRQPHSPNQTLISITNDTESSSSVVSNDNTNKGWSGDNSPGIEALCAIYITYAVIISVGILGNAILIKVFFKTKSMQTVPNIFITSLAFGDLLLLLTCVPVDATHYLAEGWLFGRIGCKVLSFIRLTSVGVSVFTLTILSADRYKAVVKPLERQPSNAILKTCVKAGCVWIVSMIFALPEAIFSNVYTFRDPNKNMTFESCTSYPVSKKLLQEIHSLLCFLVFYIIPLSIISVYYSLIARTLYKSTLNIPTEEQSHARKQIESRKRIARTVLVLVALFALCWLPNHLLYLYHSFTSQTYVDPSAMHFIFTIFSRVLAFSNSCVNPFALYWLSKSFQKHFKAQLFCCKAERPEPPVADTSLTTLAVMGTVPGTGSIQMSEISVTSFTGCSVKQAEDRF
Briefly: [3H]-inositol phosphates. The class given is cell-based. Particulars: for decrease in [3H]IP-production stimulated by MK-5046 / inhibition of [3H]IP-production caused by peptide #1: Bantag-1 100 nM; for decrease in [3H]IP-production stimulated by MK-5046: MK-5046 10 nM; for inhibition of [3H]IP-production caused by peptide #1: peptide #1 10 nM.

In assay [3] the target is T1, human BRS-3-receptor. Briefly: Cytosolic Ca2+. Format: cell-based.
Assay [4] has as its target NMBR (Homo sapiens, UniProt P28336). In words: [3H]IP production, NMBR agonist/antagonist. The class given is cell-based. Particulars: Peptide #1 (10 nM) + PD 1 μM; NCI-H727 (carcinoid); control 143 ± 21.

Read-outs that look alike come from different tables or passages of the source.

NMBR (Homo sapiens, UniProt P28336), sequence (P28336 whole entry): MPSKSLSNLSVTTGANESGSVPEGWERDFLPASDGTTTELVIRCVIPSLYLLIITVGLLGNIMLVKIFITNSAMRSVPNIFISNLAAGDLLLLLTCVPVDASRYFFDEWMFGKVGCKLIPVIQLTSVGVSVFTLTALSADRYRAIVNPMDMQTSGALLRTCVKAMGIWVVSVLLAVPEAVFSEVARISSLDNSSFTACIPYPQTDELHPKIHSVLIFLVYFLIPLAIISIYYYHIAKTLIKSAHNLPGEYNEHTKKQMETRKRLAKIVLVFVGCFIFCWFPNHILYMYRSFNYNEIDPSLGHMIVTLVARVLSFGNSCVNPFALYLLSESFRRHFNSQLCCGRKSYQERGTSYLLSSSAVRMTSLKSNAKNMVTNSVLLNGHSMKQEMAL

For the compound neuromedin B [NMB], the “[3H]IP (DPM)” value in the assay with NMBR [1] (NMB 100 nM, Balb-3T3 BRS-3 transfected, control 2487 ± 185) turned out to be 2697 ± 720 DPM; with NMBR [1] (NMB 100 nM, NCI-H69 (SCLC), control 177 ± 27), 186 ± 20 DPM; in the assay with NMBR [1] (NMB 100 nM, NCI-N417 (SCLC), control 660 ± 87), 706 ± 132 DPM; with NMBR [1] (NMB 1 μM, Balb-3T3 BRS-3 transfected, control 2487 ± 185), 2652 ± 838 DPM; in the assay with NMBR [1] (NMB 1 μM, NCI-H69 (SCLC), control 177 ± 27) it was 187 ± 37 DPM; with NMBR [1] (NMB 1 μM, NCI-N417 (SCLC), control 660 ± 87) it was 707 ± 137 DPM. Further, in the assay with NMBR [1] (NMB at 10 nM and 100 nM), the “PLC activation in 4 cell-lines (NCI-H69, NCI-N417, NCI-H727, BRS-3/Balb)” value was “activated PLC only in NCI-H727-cells”.
Consider [D-Phe^6]Bombesin-(6–13)-methyl ester, for which the “[3H]IP (DPM)” value in the assay on GRPR (Peptide #1 (10 nM) + ME 1 μM, Balb-3T3 BRS-3 transfected, control 2487 ± 185) turned out to be 16107 ± 100 DPM; with GRPR (Peptide #1 (10 nM) + ME 1 μM, NCI-N417 (SCLC), control 660 ± 87), 2513 ± 662 DPM.
Turning to gastrin-releasing peptide [GRP], the “[3H]IP (DPM)” value in the assay on GRPR (GRP 100 nM, Balb-3T3 BRS-3 transfected, control 2487 ± 185) is recorded as 2519 ± 744 DPM; in the assay on GRPR (GRP 100 nM, NCI-N417 (SCLC), control 660 ± 87) it was 881 ± 204 DPM; in the assay with GRPR (GRP 1 μM, NCI-N417 (SCLC), control 660 ± 87) it was 724 ± 138 DPM. In addition, the “PLC activation in 4 cell-lines (NCI-H69, NCI-N417, NCI-H727, BRS-3/Balb)” value in the assay with GRPR (GRP at 10 nM and 100 nM) was “activated PLC only in NCI-H727-cells”.
Consider “Boc-Phe-His-4-amino-5-cyclohexyl-2, 4, 5-trideoxypentonyl-Leu- (3-dimethylamino)benzyl amide-N-methyl ammonium trifluoroacetate [Bantag-1]”, for which the “decrease in [3H]IP-production stimulated by MK-5046” value on human BRS-3-receptor [2] (BRS-3/Balb-cells) was 93%; on human BRS-3-receptor [2] (NCI-H69), 81%; at human BRS-3-receptor [2] (NCI-H727), 75%; on human BRS-3-receptor [2] (NCI-N417), 99%. The entries for the “inhibition of [3H]IP-production caused by peptide #1” value on human BRS-3-receptor [2] (BRS-3/Balb-cells), against human BRS-3-receptor [2] (NCI-H69-cells) and against human BRS-3-receptor [2] (NCI-N417-cells) were 82%, 83% and 68%, respectively. Also, the “[3H]IP (DPM)” value on human BRS-3-receptor [2] (MK-5046 10 nM + Bantag 100 nM, Balb-3T3 BRS-3 transfected, control 2487 ± 185) is 3697 ± 1064 DPM; at human BRS-3-receptor [2] (MK-5046 10 nM + Bantag 100 nM, NCI-H69 (SCLC), control 177 ± 27), 256 ± 56 DPM; on human BRS-3-receptor [2] (MK-5046 10 nM + Bantag 100 nM, NCI-H727 (carcinoid), control 143 ± 21), 215 ± 25 DPM; at human BRS-3-receptor [2] (MK-5046 10 nM + Bantag 100 nM, NCI-N417 (SCLC), control 660 ± 87), 678 ± 82 DPM; at human BRS-3-receptor [2] (Peptide #1 (10 nM) + Bantag 100 nM, NCI-H69 (SCLC), control 177 ± 27) it was 265 ± 35 DPM; on human BRS-3-receptor [2] (Peptide #1 (10 nM) + Bantag 100 nM, NCI-H727 (carcinoid), control 143 ± 21) it was 176 ± 27 DPM. Besides, the “[3H]IP (DPM)” value at human BRS-3-receptor [2] (Peptide #1 (10 nM) + Bantag 100 nM, NCI-N417 (SCLC), control 660 ± 87) is recorded as 1125 ± 154 DPM. Moreover, the “inhibition of MK-5046 stimulated increases in cytosolic calcium” value on human BRS-3-receptor [3] (Bantag-1 1000 nM, two cell lines (NCI-H727, H782)) is listed as “completely inhibited”. Further, at human BRS-3-receptor [3] (NCI-82, NCI-H460 and NCI-H727 cells), the “inhibition of MK-5046 stimulation of increases in (Ca2+)i” value is listed as “inhibited”.
In the case of `C[C@@](Cc1c[nH]c2ccccc12)(NC(=O)Nc1ccc([N+](=O)[O-])cc1)C(=O)NCC1(c2ccccn2)CCCCC1` [PD168368], the “[3H]IP (DPM)” value amounted to 157 ± 48 DPM at NMBR [4]; 15006 ± 769 DPM in the assay on NMBR [1] (Peptide #1 (10 nM) + PD 1 μM, Balb-3T3 BRS-3 transfected, control 2487 ± 185); 471 ± 121 DPM in the assay on NMBR [1] (Peptide #1 (10 nM) + PD 1 μM, NCI-H69 (SCLC), control 177 ± 27); 2176 ± 518 DPM in the assay with NMBR [1] (Peptide #1 (10 nM) + PD 1 μM, NCI-N417 (SCLC), control 660 ± 87).
With “[D-Tyr^6, β-Ala^11, Phe^13, Nle^14]Bn- (6–14) [Peptide #1]”, the “[3H]IP (DPM)” value on human BRS-3-receptor [2] (Peptide #1 10 nM, Balb-3T3 BRS-3 transfected, control 2487 ± 185) is listed as 16341 ± 1071 DPM; on human BRS-3-receptor [2] (Peptide #1 10 nM, NCI-H69 (SCLC), control 177 ± 27), 680 ± 73 DPM; at human BRS-3-receptor [2] (Peptide #1 10 nM, NCI-H727 (carcinoid), control 143 ± 21), 235 ± 25 DPM; on human BRS-3-receptor [2] (Peptide #1 10 nM, NCI-N417 (SCLC), control 660 ± 87) it was 2131 ± 244 DPM.
